Key:
Format in all cases: in vivo
Details in all cases: 250 g/ha, evaluated after 13 days
[1] = test system: Echinochloa crus-galli (ECHCG); assay: Pre-emergence herbicidal glasshouse test
Method: (§1) Seeds of a variety of test species are sown in standard soil in pots Amaranthus palmeri (AMAPA), Amaranthus retoflexus (AMARE), Echinochloa crus-galli (ECHCG), Ipomoea hederacea (IPOHE), Setaria faberi (SETFA). After cultivation for one day (pre-emergence) or after 8 days cultivation (post-emergence) under controlled conditions in a glasshouse (at 24/16 °C, day/night; 14 hours light; 65% humidity), the plants are sprayed with an aqueous spray solution derived from the formulation of the technical active ingredient in acetone/water (50:50) solution containing 0.5% Tween 20 (polyoxyethelyene sorbitan monolaurate, CAS RN 9005-64-5). Compounds are applied at 250 g/ha unless otherwise stated. The test plants are then grown in a glasshouse under controlled conditions in a glasshouse (at 24/16 °C, day/night; 14 hours light; 65% humidity) and watered twice daily. After 13 days for pre and post-emergence, the test is evaluated for the percentage damage caused to the plant. The biological activities are shown in the following table on a five-point scale (5=81-100%; 4=61-80%; 3=41-60%; 2=21-40%; 1=0-20%).

[2] = test system: Amaranthus palmeri (AMAPA); assay: Pre-emergence herbicidal glasshouse test
Method: as §1

[3] = test system: Ipomoea hederacea (IPOHE); assay: Pre-emergence herbicidal glasshouse test
Method: as §1

[4] = test system: Amaranthus retoflexus (AMARE); assay: Pre-emergence herbicidal glasshouse test
Method: as §1

[5] = test system: Echinochloa crus-galli (ECHCG); assay: Post-emergence herbicidal glasshouse test
Method: as §1

[6] = test system: Amaranthus palmeri (AMAPA); assay: Post-emergence herbicidal glasshouse test
Method: as §1

[7] = test system: Ipomoea hederacea (IPOHE); assay: Post-emergence herbicidal glasshouse test
Method: as §1

[8] = test system: Amaranthus retoflexus (AMARE); assay: Post-emergence herbicidal glasshouse test
Method: as §1

Setaria faberi (SETFA) [9] = assay: Pre-emergence herbicidal glasshouse test
Method: as §1

Setaria faberi (SETFA) [10] = assay: Post-emergence herbicidal glasshouse test
Method: as §1

Row | Structure (SMILES) | percentage damage caused to the plant (five-point scale), ECHCG [1] | percentage damage caused to the plant (five-point scale), AMAPA [2] | percentage damage caused to the plant (five-point scale), IPOHE [3] | percentage damage caused to the plant (five-point scale), AMARE [4] | percentage damage caused to the plant (five-point scale), ECHCG [5] | percentage damage caused to the plant (five-point scale), AMAPA [6] | percentage damage caused to the plant (five-point scale), IPOHE [7] | percentage damage caused to the plant (five-point scale), AMARE [8] | percentage damage caused to the plant (five-point scale), SETFA (Setaria faberi (SETFA) [9]) | percentage damage caused to the plant (five-point scale), SETFA (Setaria faberi (SETFA) [10])
1 | FC(F)c1cc(Cc2ncc(Cl)cn2)n(CCC2CCOC2)n1 (stereo not drawn) [Compound 1.001] | 1 (0-20%) | 2 (21-40%) | 2 (21-40%) | 1 (0-20%) | 1 (0-20%) | 1 (0-20%) | 2 (21-40%) | 1 (0-20%) | – | –
2 | FC(F)c1cc(Cc2ncc(Cl)cn2)n(CCCC(F)(F)F)n1 [Compound 1.002] | 1 (0-20%) | 5 (81-100%) | 3 (41-60%) | 5 (81-100%) | 1 (0-20%) | 1 (0-20%) | 2 (21-40%) | 2 (21-40%) | – | –
3 | FC(F)c1cc(Cc2ncc(Cl)cn2)n(CCC2CC2)n1 [Compound 1.003] | 1 (0-20%) | 4 (61-80%) | 1 (0-20%) | 4 (61-80%) | 1 (0-20%) | 1 (0-20%) | 3 (41-60%) | 1 (0-20%) | – | –
4 | FC(F)CCCn1nc(C(F)F)cc1Cc1ncc(Cl)cn1 [Compound 1.004] | 1 (0-20%) | 4 (61-80%) | 2 (21-40%) | 4 (61-80%) | 1 (0-20%) | 3 (41-60%) | 2 (21-40%) | 3 (41-60%) | – | –
5 | FC(F)CCCn1nc(C(F)(F)F)cc1Cc1ncc(Cl)cn1 [Compound 1.005, 5-chloro-2-[[2-(4,4-difluorobutyl)-5-(trifluoromethyl)pyrazol-3-yl]methyl]pyrimidine] | 4 (61-80%) | 5 (81-100%) | 5 (81-100%) | 5 (81-100%) | 4 (61-80%) | – | 3 (41-60%) | 5 (81-100%) | 5 (81-100%) | 4 (61-80%)
6 | FC(F)(F)CCCn1nc(C(F)(F)F)cc1Cc1ncc(Cl)cn1 [Compound 1.006] | 4 (61-80%) | 5 (81-100%) | 3 (41-60%) | 5 (81-100%) | 3 (41-60%) | 5 (81-100%) | 3 (41-60%) | 5 (81-100%) | 5 (81-100%) | 4 (61-80%)
7 | FC(F)c1cc(Cc2ncc(Cl)cn2)n(CCC(F)(F)F)n1 [Compound 1.007] | 2 (21-40%) | 5 (81-100%) | 4 (61-80%) | 5 (81-100%) | 2 (21-40%) | 3 (41-60%) | 3 (41-60%) | 4 (61-80%) | – | –
8 | FC(F)CCn1nc(C(F)F)cc1Cc1ncc(Cl)cn1 [Compound 1.008] | 4 (61-80%) | 5 (81-100%) | 3 (41-60%) | 5 (81-100%) | 1 (0-20%) | 3 (41-60%) | 4 (61-80%) | 3 (41-60%) | 4 (61-80%) | 1 (0-20%)
9 | FC(F)(F)CCn1nc(C(F)(F)F)cc1Cc1ncc(Cl)cn1 [Compound 1.010] | 5 (81-100%) | 5 (81-100%) | 5 (81-100%) | 5 (81-100%) | 4 (61-80%) | 4 (61-80%) | 3 (41-60%) | 5 (81-100%) | – | –
10 | CCCCn1nc(C(F)F)cc1Cc1ncc(Cl)cn1 [Compound 1.011] | 2 (21-40%) | 5 (81-100%) | 3 (41-60%) | 5 (81-100%) | 1 (0-20%) | 2 (21-40%) | 2 (21-40%) | 2 (21-40%) | – | –
11 | CCCCn1nc(C(F)F)cc1Cc1ncc(Cl)cc1F [Compound 1.013] | 3 (41-60%) | 3 (41-60%) | 2 (21-40%) | 4 (61-80%) | 1 (0-20%) | 2 (21-40%) | 2 (21-40%) | 2 (21-40%) | 3 (41-60%) | 1 (0-20%)
12 | Fc1cc(Cl)cnc1Cc1cc(C(F)(F)F)nn1CCC(F)(F)F [Compound 1.018] | 5 (81-100%) | 5 (81-100%) | 3 (41-60%) | 5 (81-100%) | 4 (61-80%) | 4 (61-80%) | 4 (61-80%) | 1 (0-20%) | 5 (81-100%) | 4 (61-80%)

Reference: patent publication US20260365634A1, “HERBICIDAL PYRAZOLE COMPOUNDS” (SYNGENTA CROP PROTECTION AG, priority 2022, published 2026)
